The text below walks through data of patent US20080125432A1 (Devgen NV, priority 2004, published 2008).

For series [1], the target named is T1, human Kv4.3/KChIP2.2 potassium channel (Homo sapiens, UniProt Q9UK17).
T1 construct: expressed in transfected cells
T1 sequence (Q9UK17 1-655): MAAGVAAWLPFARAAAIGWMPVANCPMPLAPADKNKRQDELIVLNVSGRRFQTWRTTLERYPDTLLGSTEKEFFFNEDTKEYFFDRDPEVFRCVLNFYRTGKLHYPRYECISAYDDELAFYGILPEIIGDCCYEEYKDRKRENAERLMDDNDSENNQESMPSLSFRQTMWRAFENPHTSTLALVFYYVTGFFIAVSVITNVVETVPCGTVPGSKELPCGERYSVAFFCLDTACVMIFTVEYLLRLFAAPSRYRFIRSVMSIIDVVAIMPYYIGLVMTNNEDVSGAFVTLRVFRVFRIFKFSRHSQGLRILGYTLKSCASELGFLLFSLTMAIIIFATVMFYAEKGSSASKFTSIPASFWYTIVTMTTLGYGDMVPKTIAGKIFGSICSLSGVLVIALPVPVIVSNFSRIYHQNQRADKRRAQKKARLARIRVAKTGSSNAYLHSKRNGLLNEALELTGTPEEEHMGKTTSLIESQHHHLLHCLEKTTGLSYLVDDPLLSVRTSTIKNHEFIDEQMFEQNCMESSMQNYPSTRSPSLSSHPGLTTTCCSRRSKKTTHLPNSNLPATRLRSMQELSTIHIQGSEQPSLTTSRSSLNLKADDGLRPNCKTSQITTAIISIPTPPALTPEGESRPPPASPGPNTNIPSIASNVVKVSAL
In words: Whole cell patch clamp, CHO-K1 cells stably expressing human Kv4.3/KChIP2.2. The class given is cell-based. The note with it: for remaining activity at 1 µM: CHO-K1. Background: Patch clamp records ionic current or voltage across a cell membrane.

For series [2], the system named is human Kv4.3/KChIP2.2 potassium channel. The series is described as above. The class given is cell-based. The note with it: selectivity for Kv4.3 vs hERG (Patch Clamp test); >5 considered very selective. In general terms: The hERG channel carries a current that helps repolarise heart muscle cells.
Where [3] appears, read: estimated by Hill fit with hill=1, ymax=100, tested at 2 μM, n=2, read-out: IC50 (μM) Kv4.3.
[4] abbreviates: Kv4.3 mediated current, charge, patch clamp, read-out: Kv4.3 charge IC50.
[5] abbreviates: remaining current measured after application of the compound and relative to the blank, read-out: Kv4.3 charge in %.
Setting [6] is: remaining peak height measured after application of the compound and relative to the blank, read-out: Kv4.3 peak in %.

Read-outs that look alike come from different tables or passages of the source.

As usually defined, the IC50 is the concentration that gives 50% inhibition. Broadly, the melting point is the temperature, or range, at which the solid turns liquid.

Regarding `Cc1nc(Nc2ccc(Br)cc2)sc1C(=O)NCc1ccc(F)c(C(F)(F)F)c1` [Compound 63, 2-(4-bromo-phenylamino)-4-methyl-thiazole-5-carboxylic acid 4-fluoro-3-trifluoromethyl-benzylamide], the IC50 in series [1] (setting [3]) was 0.16 µM. Besides, the “Ratio hERG/Kv4.3” value in series [2] is recorded as 33.1.
Take `COc1ccc(OC)c(Nc2nc(C)c(C(=O)N[C@@H]3CCC[C@H]3OCc3ccccc3)s2)c1` [Compound 33, 2-(2,5-dimethoxyphenylamino)-4-methylthiazole-5-carboxylic acid (1R,2R)-2-(benzyloxycyclopent-1-yl) amide]: the IC50 in series [1] (setting [3]) was 3.35 µM. In series [2], the “Ratio hERG/Kv4.3” value is 10.0.
As to `Cc1nc(Nc2ccc(Cl)cc2)sc1C(=O)N[C@@H](C)c1ccc2ccccc2c1` [Compound 54, 2-(4-chloro-phenylamino)-4-methyl-thiazole-5-carboxylic acid (S)-1-(2-naphtalen-2-yl-ethyl)-amide], the IC50 in series [1] (setting [4]) and in series [1] (setting [3]) was 2.41 µM throughout. For the same compound, in series [2], the “Ratio hERG/Kv4.3” value turned out to be 6.6.
Consider `COc1cc(CNC(=O)c2sc(Nc3ccc(Br)cc3)nc2C)cc(OC)c1` [Compound 65, 2-(4-bromo-phenylamino)-4-methyl-thiazole-5-carboxylic acid 3,5-dimethoxy-benzylamide], for which, in series [1] (setting [3]), the IC50 is 0.18 µM. The “Ratio hERG/Kv4.3” value in series [2] is listed as 9.1.
For `COc1cccc([C@@H](C)NC(=O)c2sc(Nc3cc(Cl)ccc3OC)nc2C)c1` [Compound 34], the IC50 in series [1] (setting [3]) is 1.62 µM. In addition, the “Ratio hERG/Kv4.3” value in series [2] came out at 5.4.
For the compound `Cc1nc(Nc2ccc(Br)cc2)sc1C(=O)NCc1cccc2ccccc12` [Compound 56, 2-(4-bromo-phenylamino)-4-methyl-thiazole-5-carboxylic acid (naphtalen-1-yl-methyl)-amide], the IC50 in series [1] (setting [4]) and in series [1] (setting [3]) was 1.07 µM in each case. In series [2], the “Ratio hERG/Kv4.3” value worked out at 6.6.
As for “2-(4-bromo-phenylamino)-4-methyl-thiazole-5-carboxylic acid 1,2,3,4-tetrahydroisoquinolinamide [Compound 66]”, the IC50 in series [1] (setting [4]) and in series [1] (setting [3]) was 0.34 µM in each case. Also, the “Ratio hERG/Kv4.3” value in series [2] amounted to 29.1.
For the compound `COc1ccccc1Nc1nc(C)c(C(=O)N[C@@H]2CCC[C@H]2OCc2ccccc2)s1` [Compound 31, 2-(2-methoxy-phenylamino)-4-methyl-thiazole-5-carboxylic acid (1R,2R)-2-(benzyloxycyclopent-1-yl) amide], the IC50 in series [1] (setting [3]) is 2.91 µM. Further, the “Ratio hERG/Kv4.3” value in series [2] stood at 8.7.
Take `Cc1nc(Nc2ccc(Cl)cc2)sc1C(=O)N[C@H](C)c1ccc2ccccc2c1` [Compound 52, 2-(4-chloro-phenylamino)-4-methyl-thiazole-5-carboxylic acid (R)-1-(2-naphtalen-2-yl-ethyl)-amide]: the IC50 in series [1] (setting [4]) and in series [1] (setting [3]) was 0.34 µM each time. Also, in series [2], the “Ratio hERG/Kv4.3” value is listed as 65.4.
Regarding `COc1ccccc1Nc1nc(C)c(C(=O)N[C@H]2CCC[C@@H]2OCc2ccccc2)s1` [Compound 68, 2-(2-methoxy-phenylamino)-4-methyl-thiazole-5-carboxylic acid (1S,2S)-2-(benzyloxycyclopent-1-yl) amide], in series [1] (setting [3]), the IC50 is 0.54 µM. The “Ratio hERG/Kv4.3” value in series [2] is 14.7.
For `COc1ccccc1Nc1nccc(C(=O)N[C@H]2CCC[C@@H]2OCc2ccccc2)n1` [Compound 76, 2-(2-methoxy-phenylamino)-pyrimidine-4-carboxylic acid ((1S,2S)-2-benzyloxycyclopent-1-yl) amide], the melting point was 97.3 to 99.8 °C. For the same compound, the remaining activity at 1 µM in series [1] (setting [5]) came to 62%. For the same compound, in series [1] (setting [6]), the remaining activity at 1 µM was found to be 99%.
Compound `Cc1nc(Sc2ccccc2)sc1C(=O)N[C@H]1CCC[C@@H]1OCc1ccccc1` [Compound 81, 4-methyl-2-phenylsulfanyl-thiazole-5-carboxylic acid ((1S,2S)-2-benzyloxycyclopent-1-yl) amide] gave a melting point of 129.5 to 132.4 °C. In addition, the remaining activity at 1 µM in series [1] (setting [5]) came to 51%. Further, the remaining activity at 1 µM in series [1] (setting [6]) came out at 90%.
Consider `COc1ccccc1Nc1nc(C)c(C(=O)N[C@@H](C)c2ccc3ccccc3c2)s1` [Compound 55, 2-(2-methoxy-phenylamino)-4-methyl-thiazole-5-carboxylic acid (S)-1-(2-naphtalen-2-yl-ethyl)-amide], for which the IC50 in series [1] (setting [3]) is 2.02 µM. Besides, in series [2], the “Ratio hERG/Kv4.3” value is 5.0.
Regarding `COc1ccc(CNC(=O)c2sc(Nc3ccc(Br)cc3)nc2C)cc1` [Compound 60, 2-(4-bromo-phenylamino)-4-methyl-thiazole-5-carboxylic acid 4-methoxy-benzylamide], the IC50 in series [1] (setting [3]) is 0.39 µM. Further, the “Ratio hERG/Kv4.3” value in series [2] worked out at 7.7.
As for `Cc1nc(Nc2ccc(Br)cc2)sc1C(=O)N[C@@H](C)c1ccc2ccccc2c1` [Compound 18, 2-(4-bromo-phenylamino)-4-methyl-thiazole-5-carboxylic acid (S)-1-(naphthalen-2-yl)ethyl amide], the IC50 in series [1] (setting [3]) is 3.85 µM. Further, the “Ratio hERG/Kv4.3” value in series [2] turned out to be 6.9.
On to `Cc1nc(Nc2ccc(Br)cc2)sc1C(=O)NCc1ccc(N(C)C)cc1` [Compound 64, 2-(4-bromo-phenylamino)-4-methyl-thiazole-5-carboxylic acid 4-dimethylamino-benzylamide], for which, in series [1] (setting [3]), the IC50 is 0.83 µM. Besides, in series [2], the “Ratio hERG/Kv4.3” value was above 120.
For the compound `COc1ccccc1Nc1nc(C)c(C(=O)NCc2ccc(Br)cc2)s1` [Compound 108, 2-(2-methoxy-phenylamino)-4-methyl-thiazole-5-carboxylic acid 4-bromo-benzylamide], the melting point lay within 150.7 to 154.2 °C. In addition, in series [1] (setting [5]), the remaining activity at 1 µM came out at 59%. Besides, the remaining activity at 1 µM in series [1] (setting [6]) was determined as 82%.
For the compound `Cc1nc(Nc2ccc(Cl)cc2)sc1C(=O)N[C@@H]1CCC[C@H]1OCc1ccccc1` [Compound 30, 2-(4-chloro-phenylamino)-4-methyl-thiazole-5-carboxylic acid (1R,2R)-2-(benzyloxycyclopent-1-yl) amide], the 50% inhibitory concentration (IC50) in series [1] (setting [4]) and in series [1] (setting [3]) was 1.25 µM throughout. Further, the “Ratio hERG/Kv4.3” value in series [2] came out at 8.7.
On to `Cc1nc(Nc2ccc(Br)cc2)sc1C(=O)N[C@H](C)c1ccc2ccccc2c1` [Compound 19, 2-(4-bromo-phenylamino)-4-methyl-thiazole-5-carboxylic acid (R)-1-(naphthalen-2-yl)ethyl amide], for which the IC50 in series [1] (setting [3]) was 2.72 µM. In series [2], the “Ratio hERG/Kv4.3” value was determined as 33.1.
For `COc1ccccc1Nc1nc(C)c(C(=O)NCc2ccc(C(C)(C)C)cc2)s1` [Compound 106, 2-(2-methoxy-phenylamino)-4-methyl-thiazole-5-carboxylic acid 4-tert-butyl-benzylamide], the melting point lay in the range of 168.5 to 169.4 °C. In series [1] (setting [5]), the remaining activity at 1 µM was found to be 58%. Further, in series [1] (setting [6]), the remaining activity at 1 µM was determined as 98%.
